Source: US6403602B1 (priority 1997, dated 2002)
Where a name gives a salt, the structure may show the parent alone. Read-outs that look alike come from different tables or passages of the source.

Columns and labels:
[1] = test system: κ2 sites; assay type: binding, guinea pig
[2] = test system: mu receptors; assay type: cell-based, guinea pig
[3] = test system: electrically stimulated mouse vas deferens; test: tissue or blood; assay type: cell-based
[4] = test system: electrically stimulated guinea pig ileum; test: tissue or blood; assay type: cell-based
[5] = molecular target: T1, delta receptors (Mus musculus, UniProt P32300); assay type: cell-based
T1 construct: The vas deferens from Swiss-Webster mice (30-35 g) were prepared as described by Hughes et al; from tissue; host or cells: mouse vas deferens (Swiss-Webster)

[6] = molecular target: T2, delta receptors (Cavia porcellus, UniProt A0A286XTF2); test: biochemical; assay type: binding, guinea pig
T2 construct: The brains were then homogenized in 50 mM Tris HCl, buffer pH 7.7, using a Polytron; from tissue; host or cells: guinea pig brain homogenate (membrane pellet)

[7] = molecular target: mu opioid receptors (Cavia porcellus, UniProt A0ACM8Q262); assay type: binding, guinea pig; conditions: read-out: Ki μ [^3H]DAMGO
[8] = molecular target: kappa3 receptors; assay type: binding, guinea pig; conditions: read-out: Ki κ3 [^3H]NalBzoH
[9] = molecular target: T3, kappa1 sites (Cavia porcellus, UniProt P41144); test: biochemical; assay type: binding, guinea pig
T3 construct: The brains were then homogenized in 50 mM Tris HCl, buffer pH 7.7, using a Polytron; from tissue; host or cells: guinea pig brain homogenate (membrane pellet)

[10] = molecular target: T4, kappa receptors (Cavia porcellus, UniProt P41144); assay type: cell-based, guinea pig
T4 construct: The longitudinal muscle with the myenteric plexus attached was gently separated from the underlying circular muscle; from tissue; host or cells: guinea pig ileum longitudinal muscle with myenteric plexus

[11] = read-out: Mouse Vas Deferens IC50
[12] = read-out: Guinea Pig Ileum IC50
[13] = read-out: Ki δ, experiment done with [^3H]DPDPE
[14] = read-out: IC50 (nM), Mouse Vas Deferens
[15] = read-out: IC50 (nM), Guinea Pigs Ileum
[16] = Mus musculus, read-out: Mouse vas deferens maximum inhibition
[17] = Cavia porcellus, read-out: Guinea Pig Ileum IC50 (nM)

mu opioid receptors, sequence (A0ACM8Q262 1-400): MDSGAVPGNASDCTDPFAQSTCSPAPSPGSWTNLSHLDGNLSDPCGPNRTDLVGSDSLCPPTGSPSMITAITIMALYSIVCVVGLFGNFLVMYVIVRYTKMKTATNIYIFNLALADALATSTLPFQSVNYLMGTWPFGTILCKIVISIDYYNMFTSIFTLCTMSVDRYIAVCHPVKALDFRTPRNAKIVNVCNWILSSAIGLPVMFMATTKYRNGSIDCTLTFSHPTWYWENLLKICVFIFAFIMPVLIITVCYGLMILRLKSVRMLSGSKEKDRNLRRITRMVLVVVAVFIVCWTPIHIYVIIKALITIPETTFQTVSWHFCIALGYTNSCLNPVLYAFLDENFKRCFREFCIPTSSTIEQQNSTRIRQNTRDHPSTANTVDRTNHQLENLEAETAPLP
T4 sequence (P41144 whole entry): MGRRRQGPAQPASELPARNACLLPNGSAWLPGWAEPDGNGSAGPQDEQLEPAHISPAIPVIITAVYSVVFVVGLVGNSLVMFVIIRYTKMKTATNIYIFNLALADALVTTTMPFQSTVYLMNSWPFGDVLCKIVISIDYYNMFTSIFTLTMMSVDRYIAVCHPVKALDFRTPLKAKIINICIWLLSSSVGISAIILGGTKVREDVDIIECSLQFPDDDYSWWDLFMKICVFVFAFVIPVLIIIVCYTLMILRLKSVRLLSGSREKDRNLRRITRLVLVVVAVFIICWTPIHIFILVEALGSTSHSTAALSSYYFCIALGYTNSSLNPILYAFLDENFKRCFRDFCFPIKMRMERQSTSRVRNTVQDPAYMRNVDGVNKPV
T3 sequence (P41144 whole entry): as above
T1 sequence (P32300 whole entry): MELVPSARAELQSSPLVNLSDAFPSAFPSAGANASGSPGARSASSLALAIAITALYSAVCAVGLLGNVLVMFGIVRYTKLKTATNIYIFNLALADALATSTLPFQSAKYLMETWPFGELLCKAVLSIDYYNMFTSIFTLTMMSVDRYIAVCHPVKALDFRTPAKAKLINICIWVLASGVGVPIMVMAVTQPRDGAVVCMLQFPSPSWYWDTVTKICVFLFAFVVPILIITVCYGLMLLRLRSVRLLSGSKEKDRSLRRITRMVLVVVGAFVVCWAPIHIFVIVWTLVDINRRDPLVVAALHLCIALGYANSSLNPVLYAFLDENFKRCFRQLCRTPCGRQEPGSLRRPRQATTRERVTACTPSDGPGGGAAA
T2 sequence (A0A286XTF2 1-366): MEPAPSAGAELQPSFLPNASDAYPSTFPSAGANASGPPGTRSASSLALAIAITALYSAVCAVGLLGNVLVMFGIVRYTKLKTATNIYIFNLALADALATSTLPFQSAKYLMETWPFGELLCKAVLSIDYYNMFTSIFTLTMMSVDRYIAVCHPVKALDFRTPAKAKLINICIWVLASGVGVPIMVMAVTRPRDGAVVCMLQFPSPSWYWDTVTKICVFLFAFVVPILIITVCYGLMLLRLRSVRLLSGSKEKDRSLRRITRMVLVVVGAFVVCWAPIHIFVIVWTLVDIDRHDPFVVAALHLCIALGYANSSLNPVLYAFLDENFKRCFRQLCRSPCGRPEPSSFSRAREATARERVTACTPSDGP

Row | Molecule | IC50 [1] | Guinea Pig Ileum DR with CTAP [2] | Ki [7] | Ki [8] | Ki ([9]; read-out: Ki κ1 [^3H]U69,593) | Ki [6, 13] | Guinea Pig Ileum DR with Nor-BNI [10] | Guinea Pig Ileum Ke of Nor-BNI [10] | other results
1 | 3-O-Acetyl-7,8-dihydromorphine-6-O-sulfate [NIDA # 20,265] | > 10000 nM | 6.03 ± 0.97 | 13.7 nM |  |  |  |  |  | Guinea Pig Ileum Ke of CTAP [2]: 20.25 ± 3.92; IC50 [3, 11]: 1110 nM; IC50 [4, 12]: 37.7 ± 6.55 nM; Mouse Vas Deferens DR with Naltrindole [5]: 0.924 ± 0.64; Ki ([6]; read-out: Ki δ [^3H]Cl-DPDPE): 325 nM
2 | CCCN1CCCC(c2cccc(O)c2)C1 (single isomer, unassigned; (+)) [(+) 3-PPP-HCl] | > 10000 nM |  | 3450 nM | 782 nM | 388 nM | > 10000 nM |  |  | 
3 | CC1C2Cc3ccc(O)cc3C1(C)CCN2CC1CC1 (single isomer, unassigned; (+)) [(+) Cyclazocine] | > 10000 nM |  | 659 nM | 786 nM | 383 nM | > 10000 nM |  |  | 
4 | C=CCN1CC[C@@]2(C)c3cc(O)ccc3CC1[C@@H]2C.Cl (single isomer, unassigned; (-)) [(−) SKF 10,047-HCl] | 132 nM | 0.44 ± 0.02 | 0.7 nM |  | 0.3 nM | 3.8 nM | 273.10 | 0.08 ± 0.01 | IC50 [4, 12]: 10.5 nM
5 | CC[C@@]12CCN(CC3CC3)C(C(=O)c3ccc(O)cc31)[C@@H]2C (single isomer, unassigned; (-)) [(−)EKC] | 25.2 nM |  | 0.4 nM | 3.9 nM |  |  |  |  | DR with CTAP [2]: 0.62; IC50 [3, 14]: 5.31 nM; IC50 [4, 15]: 0.15 nM; DR with Naltrindole [5]: 0.90; Ki ([6]; read-out: Ki δ [^3H]Cl-DPDPE): 2 nM
6 | CC(C)=CCN1CC[C@]2(C)c3cc(O)ccc3C[C@H]1[C@H]2C [(+) Pentazocine-succinate] | 5270 nM |  | 595 nM | 420 nM | 206 nM | 3480 nM |  |  | 
7 | C=CCN1CC[C@@]2(C)c3cc(O)ccc3C[C@@H]1[C@@H]2C [(+) SKF 10,047-HCl] | > 10000 nM |  | 2120 nM | > 1000 nM | 2890 nM | > 10000 nM |  |  | 
8 | O=C1/C(=C/c2ccccc2)C[C@@]2(O)[C@H]3Cc4ccc(O)c5c4[C@@]2(CCN3CC2CC2)[C@H]1O5 [BNTX] | 822 nM |  | 1.9 nM |  | 7.1 nM |  |  |  | 
9 | CCC(=O)Oc1ccc2c3c1O[C@H]1[C@@H](OS(=O)(=O)O)C=C[C@H]4[C@@H](C2)N(C)CC[C@@]341 [NIDA # 20,270, 3-O-Propionylmorphine-6-O-sulfate] | > 10000 nM |  |  | 19.9 nM |  |  | 1.26 ± 0.33 | 40.73 | Guinea Pig Ileum Ke of CTAP [2]: 37.58 ± 2.09; Guinea Pig Ileum Ratio (CTAP) [2]: 0.515; inhibition at 20 µM [3, 16]: 20%; IC50 [4, 17]: 154 ± 48.6 nM; Ki [9]: 252 nM; Ki [6]: 40 nM; Guinea Pig Ileum Ratio (Nor-BNI) [10]: 0.002
10 | CC(C)C(=O)Oc1ccc2c3c1O[C@H]1[C@@H](OS(=O)(=O)O)C=C[C@H]4[C@@H](C2)N(C)CC[C@@]341 [NIDA # 20,271, 3-O-Isobutyrylmorphine-6-O-sulfate] | > 10000 nM | 9.45 ± 4.31 |  | 266 nM |  |  | 1.38 ± 0.01 | 53.14 ± 1.30 | Guinea Pig Ileum Ke of CTAP [2]: 13.55 ± 6.89; Guinea Pig Ileum Ratio (CTAP) [2]: 1.427; inhibition at 100 µM [3, 16]: 38%; IC50 [4, 17]: 1960 nM; Ki [9]: 4560 nM; Ki [6]: 584 nM; Guinea Pig Ileum Ratio (Nor-BNI) [10]: 0.001
11 | Oc1ccc2c3c1O[C@H]1c4oc5ccccc5c4C[C@@]4(O)[C@@H](C2)N(CC2CC2)CC[C@]314 [NTB] | 406 nM |  | 6.5 nM | 7.5 nM | 10.2 nM |  |  |  | Ki ([6]; read-out: Ki δ [^3H]Cl-DPDPE): 0.06 nM
12 | Oc1ccc2c3c1O[C@H]1c4[nH]c5c(c4C[C@@]4(O)[C@@H](C2)N(CC2CC2)CC[C@]314)C[C@@]1(O)[C@H]2Cc3ccc(O)c4c3[C@@]1(CCN2CC1CC1)[C@H]5O4 [Nor-BNI (HCl)2, nor-binaltorphimine] | 37.5 nM |  |  | 15 nM | 0.3 nM |  |  |  | Ki [6]: 6.3 nM
13 | c1ccc(C2(N3CCCCC3)CCCCC2)cc1 [PCP-HCl] | > 10000 nM |  | > 10000 nM | > 10000 nM | > 10000 nM | > 10000 nM |  |  | 
14 | c1csc(C2(N3CCCCC3)CCCCC2)c1 [TCP-HCl] | > 10000 nM |  | 2200 nM | > 10000 nM | 2040 nM | > 10000 nM |  |  | 
15 | CC[C@H](C)[C@H](NC(=O)[C@H](C)NC(=O)[C@H](CC(N)=O)NC(=O)[C@H](CCCCN)NC(=O)[C@H](Cc1ccccc1)NC(=O)[C@H](CC(C)C)NC(=O)[C@@H](NC(=O)[C@@H](NC(=O)[C@H](CC(C)C)NC(=O)[C@@H]1CCCN1C(=O)[C@@H](NC(=O)[C@H](CCC(N)=O)NC(=O)[C@H](CO)NC(=O)[C@H](CCCCN)NC(=O)[C@H](CCC(=O)O)NC(=O)[C@H](CO)NC(=O)[C@@H](NC(=O)[C@H](CCSC)NC(=O)[C@H](Cc1ccccc1)NC(=O)CNC(=O)CNC(=O)[C@@H](N)Cc1ccc(O)cc1)[C@@H](C)O)[C@@H](C)O)C(C)C)[C@@H](C)O)C(=O)N[C@H](C(=O)N[C@@H](CCCCN)C(=O)N[C@@H](CC(N)=O)C(=O)N[C@@H](C)C(=O)N[C@@H](Cc1ccc(O)cc1)C(=O)N[C@@H](CCCCN)C(=O)N[C@@H](CCCCN)C(=O)NCC(=O)N[C@@H](CCC(=O)O)C(=O)O)[C@@H](C)CC [β-Endorphin-OH] | 2050 nM | 5.86 |  | 14.5 nM |  |  | 4.24 | 6.98 | Guinea Pig Ileum Ke of CTAP [2]: 20.87; IC50 [3, 11]: 68 nM; IC50 [4, 12]: 59.4 nM; Mouse Vas Deferens DR with Naltrindole [5]: 7.98; Mouse Vas Deferens Ke of Naltrindole [5]: 0.156 ± 0.05
16 | (−) Pentazocine-succinate | 424 nM | 0.73 ± 0.38 | 5.7 nM | 12.4 nM | 4.4 nM |  | 6.10 | 4.00 ± 0.8 | IC50 [4, 12]: 170 nM
17 | Dynorphin (1-8) | 1760 nM |  |  | 12.9 nM |  |  |  |  | DR with CTAP [2]: 0.98; IC50 [3, 14]: 56.4 nM; IC50 [4, 15]: 71.8 nM; DR with Naltrindole [5]: 2.77; Ke of Naltrindole [5]: 0.64; Ratio (after Ke of Naltrindole) [5]: 0.033; DR with Nor-BNI [10]: 18.44; Ke of Nor-BNI [10]: 1.21; Ratio (after Ke of Nor-BNI) [10]: 0.050
18 | Leu-Enkephalin | > 10000 nM | 4.63 |  | 1670 nM |  |  | 1.94 | 21.41 | Guinea Pig Ileum Ke of CTAP [2]: 29.38; Guinea Pig Ileum Ratio (CTAP) [2]: 0.659; IC50 [3, 11]: 7.38 nM; IC50 [4, 12]: 87.3 nM; Mouse Vas Deferens DR with Naltrindole [5]: 28.07; Mouse Vas Deferens Ke of Naltrindole [5]: 0.038; Mouse Vas Deferens Ratio (Naltrindole) [5]: 0.577; Guinea Pig Ileum Ratio (Nor-BNI) [10]: 0.002
